Experimental data published in patent US20130183362A1, “SYNTHESIS OF ZINC ACRYLATE COPOLYMER FROM ACID FUNCTIONAL COPOLYMER, ZINC PYRITHIONE, AND COPPER COMPOUND” (ARCH CHEMICALS, INC., priority 2010, published 2013).
Like-named read-outs stand apart in the source and are kept apart here.

Conditions: SEM images; for Ave. Aspect Ratio (length/width): Hitachi S-300N, length divided by width
Protocol: All images were obtained using a Hitachi S-300N Scanning electron Microscope.
Procedure: Aspect ratio was determined by superimposing a micron scale over the particle images and visually comparing the width and length of the particles to the scale. Length divided by width determines the aspect ratio. The images were obtained using a Hitachi S-300N Scanning electron Microscope.

On1ccccc1=S.On1ccccc1=S.[Cu] [Sample 507C, copper pyrithione]
Ave. Aspect Ratio (length/width): 12.2

On1ccccc1=S.On1ccccc1=S.[Cu] [Sample 508D, copper pyrithione]
Ave. Aspect Ratio (length/width): 9.1

On1ccccc1=S.On1ccccc1=S.[Cu] [Sample 513, copper pyrithione]
particles having an aspect ratio greater than 15: none of the particles
Ave. Aspect Ratio (length/width): 4.3
Ave. Aspect Ratio (length/width) (listed as commercially available milled copper pyrithione): 4.3
